Earlier results in US7368585B2, “Synthetic techniques and intermediates for polyhydroxy dienyl lactones and mimics thereof” (The Trustees Of The University Of Pennsylvania, priority 1996, dated 2008).

Tests used:
[1] = test system: mitotic spindle microtubules; details: compared with taxol
murine splenocytes [2] = details: in vitro
[3] = test system: two-way mixed-lymphocyte reaction; details: in vitro
[4] = test system: graft-vs.-host splenomegaly response; details: in vivo
murine splenocytes [5] = details: in vitro; remark: listed apart in the source
[6] = test system: cell development at the M phase; details: by binding and stabilizing mitotic spindle microtubules

C=C/C=C\[C@H](C)[C@H](OC(N)=O)[C@@H](C)[C@H](O)[C@@H](C)C/C(C)=C\[C@H](C)[C@@H](O)[C@@H](C)/C=C\[C@@H](O)C[C@@H]1OC(=O)[C@H](C)[C@@H](O)[C@H]1C [(+)-discodermolide]
microtubule binding affinity relative to taxol [1]: much higher
suppression of concanavalin A-induced mitogenesis of murine splenocytes (murine splenocytes [2]): suppresses
suppression of the two-way mixed-lymphocyte reaction [3]: suppresses
potency in graft-vs.-host splenomegaly response relative to cyclosporin A and FK506 ([4]; F1 recipient mice): intermediate between those of cyclosporin A and FK506
suppression of graft-vs.-host splenomegaly response ([4]; injection of parental splenocytes into F1 recipient mice): suppresses
associated cytotoxicity (murine splenocytes [5]): no associated cytotoxicity
cell cycle effect [6]: arrests cell development at the M phase
